This note sets out measurements from US20090062388A1, “Use of acetyl L-carnitine for the preparation of a medication for the preventive therapy for pain” (Sigma-Tau Industrie Farmaceutiche Riunite S.p.A., priority 2001, published 2009).

Data set [1] concerns Male Swiss Webster mice. The data set is described as follows: Sleep induction test with pentobarbital. The format is in vivo. How it is done: In the sleep induction test with pentobarbital, the duration of the loss of the […] reflex was measured in the mice treated with pentobarbital (60 mg/kg IP).
Data set [2] has as its system Male Swiss Webster mice. The data set is described as follows: Rota-rod test (motor coordination). The format is in vivo. How it is done:
The rota rod test was carried out by means of an apparatus consisting of a platform and a 3 cm-diameter rotating rod (16-20 r.p.m.) with a non-slipping surface.
The integrity of the animals' motor coordination was determined according to the capacity of the mice to keep their balance on the rotating rod.
At various intervals after the treatment, the parameter considered was the number of falls of the animal within a 30 second-observation (Vaught et al., Neuropharmacol., 24: 211, 1985).
In general terms: In the rotarod test animals must keep their balance on a rotating rod.

The subject of data set [3] is M1 muscarinic receptor sub-type. The data set is described as follows: Hot plate: acetyl L-carnitine analgesia after anti-M1 antisense oligonucleotide ICV. To be noted: Acetyl L-carnitine 100 mg/kg BID SC 7 days. The format is in vivo, mice. The text has this:
The observation that the analgesia induced by the acetyl L-carnitine is mediated by the M1 muscarinic receptor sub-type is confirmed by the application of the anti-sense strategy.

The test system of data set [4] is Male Swiss Webster mice. The data set is described as follows: Hole board test (spontaneous motility, exploratory activity). The format is in vivo. As to conditions: 14-day sub-chronic treatment SC 100 mg/kg BID; 5 minutes on board. As for the experimental part:
In the hole board test, the […] movements were recorded by two separate photocell systems, which recorded both the movements on the board (spontaneous motility) and how many times the mouse put its head into the holes on the surface (exploratory activity).
The mice were placed on the board one at a time and left free to explore both the surface and the holes for 5 minutes.

The mark [5] stands for this setting: pentobarbital 60 mg/kg IP, Acetyl L-carnitine 100 mg/kg BID SC 7 days, Piracetam 30 mg/kg IP.

Each structure is given as a SMILES string.

In the case of `CC(=O)O[C@H](CC(=O)[O-])C[N+](C)(C)C` [Acetyl L-carnitine, acetyl L-carnitine], the “effect on pentobarbital sleep duration and induction times” value with Male Swiss Webster mice [1] (100 mg/kg BID SC for 7 days, pentobarbital 60 mg/kg IP 24 hours after end of treatments) is reported as “neither affected the duration of sleep nor the induction times”. The “SLEEP Duration” value in the data set on Male Swiss Webster mice [1] (setting [5]) came out at 23.5 ± 3.4 min. For the same compound, the “SLEEP Induction time” value with Male Swiss Webster mice [1] (setting [5]) worked out at 3.3 ± 2.1 min. In the data set on Male Swiss Webster mice [2] (100 mg/kg BID, SC or IP for 7 and 14 days), the “Motor coordination (rota-rod)” value is on record as “not different from motor coordination of the control mice”. For the same compound, the “ROTA-ROD No. of falls in 30 seconds” value was determined as 2.2 ± 0.4 in the data set with Male Swiss Webster mice [2] (7-day sub-chronic treatment IP 100 mg/kg BID, 15 min after treatment); 1.5 ± 0.3 with Male Swiss Webster mice [2] (7-day sub-chronic treatment IP 100 mg/kg BID, 30 min after treatment); 1.1 ± 0.3 in the data set on Male Swiss Webster mice [2] (7-day sub-chronic treatment IP 100 mg/kg BID, 45 min after treatment); 3.6 ± 0.5 with Male Swiss Webster mice [2] (7-day sub-chronic treatment IP 100 mg/kg BID, before treatment); 2.9 ± 0.3 in the data set with Male Swiss Webster mice [2] (14-day sub-chronic treatment IP 100 mg/kg BID, 15 min after treatment); 1.7 ± 0.4 in the data set on Male Swiss Webster mice [2] (14-day sub-chronic treatment IP 100 mg/kg BID, 30 min after treatment). In addition, the “ROTA-ROD No. of falls in 30 seconds” value in the data set on Male Swiss Webster mice [2] (14-day sub-chronic treatment IP 100 mg/kg BID, 45 min after treatment) was 1.0 ± 0.3; with Male Swiss Webster mice [2] (14-day sub-chronic treatment IP 100 mg/kg BID, before treatment) it was 3.9 ± 0.5. For the same compound, the “Hot plate Licking latency” value was determined as 13.5 ± 0.8 s in data set [3] (pre-treat. AODN 3 nmol ICV, 24 hours after last injection, before treatment); 16.6 ± 1.9 s in data set [3] (pre-treat. AODN 3 nmol ICV, after treatment 15 min); 15.8 ± 1.8 s in data set [3] (pre-treat. AODN 3 nmol ICV, after treatment 30 min); 15.8 ± 1.5 s in data set [3] (pre-treat. AODN 3 nmol ICV, after treatment 45 min); 23.6 ± 1.1 s in data set [3] (pre-treat. dODN 3 nmol ICV, 24 hours after last injection, before treatment); 22.6 ± 2.3 s in data set [3] (pre-treat. dODN 3 nmol ICV, after treatment 15 min). Also, the “Hot plate Licking latency” value in data set [3] (pre-treat. dODN 3 nmol ICV, after treatment 30 min) stood at 21.9 ± 1.5 s; in data set [3] (pre-treat. dODN 3 nmol ICV, after treatment 45 min), 22.3 ± 1.7 s. Also, in the data set on Male Swiss Webster mice [4], the “EXPLORATORY ACTIVITY No. of movements” value amounted to 52.3 ± 6.5. Further, the “LOCOMOTOR ACTIVITY No. of explorations” value with Male Swiss Webster mice [4] was found to be 24.0 ± 5.1.
